Data published in patent US20150133509A1, “TREE TRUNK INJECTION” (NIPPON SODA CO., LTD., priority 2012, published 2015).
Read-outs that look alike come from different tables or passages of the source.

Legend:
Raffaelea quercivora = test: Flat plate antifungal test (PDA medium); format: cell-based; conditions: for inhibition at 1 ppm / inhibition at 10 ppm / inhibition at 100 ppm / inhibition at 0.01 ppm / inhibition at 0.1 ppm: Dryadomyces quercivorus, read-out: Inhibition rate of hyphal elongation; for antifungal effect on Raffaelea quercivora at low concentrations: concentrations of less than about 1 ppm; for inhibition at 0.01 ppm: 0.01 ppm in PDA medium
Method: The tree trunk injection agents was obtained by dissolving triflumizole to be each concentration of 100 ppm 10 ppm, 1 ppm, 0.1 pmm, and 0.01 ppm in solution for PDA (potato dextrose agar) medium. These tree trunk injection agents were poured into Petri dishes with inner diameter of 9 cm, and allowed to solidify to produce plate mediums with diameter of 9 cm. In this medium, the flora disk of Raffaelea quercivora was plated. This was cultured statically for 3 days to 4 days at 25° C. Then, the diameter of the flora was measured, and the inhibition rate of hyphal elongation was calculated. The inhibition rate of hyphal elongation (%) was calculated based on the formula: ((flora diameter of untreated group−flora diameter of medium containing triflumizole)/flora diameter of untreated group)×100.

[1] = test system: fungi which cause Laurel wilt; conditions: Non-Patent Document 1; cited from earlier work
[2] = 1 ppm in PDA medium, 3 to 4 days at 25° C.
[3] = 10 ppm in PDA medium, 3 to 4 days at 25° C.
[4] = 100 ppm in PDA medium, 3 to 4 days at 25° C.
[5] = 0.1 ppm in PDA medium, 3 to 4 days at 25° C.

SMILES	inhibition at 1 ppm (Raffaelea quercivora; [2])	inhibition at 10 ppm (Raffaelea quercivora; [3])	inhibition at 100 ppm (Raffaelea quercivora; [4])	antifungal effect on Raffaelea quercivora at low concentrations (Raffaelea quercivora)	inhibition at 0.01 ppm (Raffaelea quercivora; 3 to 4 days at 25° C.)	inhibition at 0.1 ppm (Raffaelea quercivora; [5])	effectiveness for fungi which cause Laurel wilt [1]	inhibition at 0.1 ppm (Raffaelea quercivora)	inhibition at 1 ppm (Raffaelea quercivora)	inhibition at 10 ppm (Raffaelea quercivora)	inhibition at 100 ppm (Raffaelea quercivora)
CCCCC(O)(Cn1cncn1)c1ccc(Cl)cc1Cl (stereo not shown) [hexaconazole]	33%	98%	100%	not exhibited any antifungal effect	–	–	–	–	–	–	–
CC1(C)CCC(Cc2ccc(Cl)cc2)C1(O)Cn1cncn1 (stereo not shown) [metconazole]	97%	98%	100%	–	35%	59%	–	–	–	–	–
CCCCC(C#N)(Cn1cncn1)c1ccc(Cl)cc1 (stereo not shown) [myclobutanil]	44%	96%	100%	not exhibited any antifungal effect	–	–	–	–	–	–	–
CCCC1COC(Cn2cncn2)(c2ccc(Cl)cc2Cl)O1 (stereo not shown) [propiconazole]	–	–	–	–	–	–	highly effective	–	–	–	–
FC(F)C(F)(F)OCC(Cn1cncn1)c1ccc(Cl)cc1Cl (stereo not shown) [tetraconazole]	60%	100%	100%	not exhibited any antifungal effect	–	–	–	–	–	–	–
CCCOC/C(=N\c1ccc(Cl)cc1C(F)(F)F)n1ccnc1 [triflumizole]	96%	100%	100%	–	25%	95%	–	–	–	–	–
O=CNC(N1CCN(C(NC=O)C(Cl)(Cl)Cl)CC1)C(Cl)(Cl)Cl (stereo not shown) [triforine]	–	–	–	not exhibited any antifungal effect	–	–	–	0%	0%	26%	100%
